Literature values in patent publication US20200115358A1, “ICARIIN AND ICARITIN DERIVATIVES” (H. LEE MOFFITT CANCER CENTER AND RESEARCH INSTITUTE, INC., priority 2016, published 2020).

System: MDSCs

Compound: COc1ccc(-c2oc3c(CCC(C)(C)O)c(O)cc(O)c3c(=O)c2O)cc1 [ICT]
- inflammatory responses associated with MDSCs: effectively inhibit

Compound: Icariin
- inflammatory responses associated with MDSCs: effectively inhibit
